Measured values taken from PubChem BioAssay (NCI).
Values joined by “and” are separate entries in the source; they are usually repeats but may differ in a detail not shown here. Equal values may be shown once.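 The compound was tested at five concentrations on cells cultured in 96-well plates, with a 48-hour exposure period. GI50: concentration for 50% inhibition of growth. TGI is the concentration that stops growth completely.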

Tests used:
Assay in all cases: NCI-60 cell line screen, 48 h
T-47D breast = system: T-47D breast
SR leukemia = system: SR leukemia
SK-MEL-2 melanoma = system: SK-MEL-2 melanoma
NCI/ADR-RES ovarian = system: NCI/ADR-RES ovarian
SK-OV-3 ovarian = system: SK-OV-3 ovarian
EKVX NSCLC = system: EKVX NSCLC
MCF7 breast = system: MCF7 breast
M14 melanoma = system: M14 melanoma
ACHN renal = system: ACHN renal
SF-295 CNS = system: SF-295 CNS
SW-620 colon = system: SW-620 colon
CCRF-CEM leukemia = system: CCRF-CEM leukemia

SMILES	TGI (T-47D breast) [µM]	TGI (SR leukemia)	TGI (SK-MEL-2 melanoma) [µM]	TGI (NCI/ADR-RES ovarian) [µM]	TGI (SK-OV-3 ovarian)	TGI (EKVX NSCLC) [µM]	TGI (MCF7 breast) [µM]	TGI (M14 melanoma) [µM]	TGI (ACHN renal) [µM]	TGI (SF-295 CNS)	TGI (SW-620 colon) [µM]	TGI (CCRF-CEM leukemia) [µM]	GI50 (SK-OV-3 ovarian)	GI50 (ACHN renal)	GI50 (SF-295 CNS)
NS(=O)(=O)c1nnc(NC(=O)/C=C/C(=O)O)s1	> 100	> 100 µM	> 100	> 100	> 100 µM	> 100	> 100	> 100	> 100	> 100 µM	> 100	–	–	–	–
COC(=O)C1(Cc2ccc(C)cc2)Cc2c(C)cccc2C1=O (configuration not stated)	72.1	50.9 µM	28.7	80.9	> 100 µM	> 100	28.4	> 100	76.9	> 100 µM	> 100	> 100	–	–	–
CC1(C)/C(=N\Nc2ccc([N+](=O)[O-])cc2[N+](=O)[O-])C2CCC1C2 (configuration not stated)	> 100	> 100 µM	> 100	> 100	> 100 µM	> 100	> 100	> 100	> 100	71.5 µM	> 100	–	–	–	–
OC1(C2(c3ccc(Cl)cc3)CCCC2)c2ccccc2C2=NCCN21 (configuration not stated)	22	37.9 µM	–	33.2	33.9 µM	31.6	32.7	28.6	30.5	30.7 µM	48.6	38.5	–	–	–
O=C(NNC(=O)c1c(Cl)c(Cl)c(Cl)c(Cl)c1-c1nc2ccccc2[nH]1)c1ccc(Cl)cc1	93.5	> 100 µM	> 100	> 100	> 100 µM	> 100	> 100	> 100	> 100	> 100 µM	> 100	67.9	–	–	–
CNC(=O)OCC1=C(COC(=O)NC)C(C)N(c2ccccc2)C1 (configuration not stated)	> 100	67.4 µM	70.6	> 100	> 100 µM	> 100	58.3	65.8	> 100	> 100 µM	> 100	> 100	–	–	–
COc1ccc(-c2nc(SC)n(C3OC(COC(C)=O)C(OC(C)=O)C(OC(C)=O)C3OC(C)=O)c(=O)c2C#N)cc1 (configuration not stated)	> 100	> 100 µM	> 100	> 100	98.4 µM and > 100 µM	> 100	> 100	> 100	> 100	65.6 µM and > 100 µM	> 100	> 100	34.5 µM and > 100 µM	35.8 µM and > 100 µM	24.2 µM and > 100 µM
CCCCCCC(=O)c1ccc2ccccc2c1O	> 100	> 100 µM	67.5	> 100	> 100 µM	> 100	> 100	> 100	> 100	> 100 µM	> 100	> 100	–	–	–
CS(=O)(=O)CCC(N)P(=O)(O)O (configuration not stated)	> 100	> 100 µM	> 100	> 100	> 100 µM	> 100	> 100	> 100	> 100	> 100 µM	> 100	> 100	–	–	–
COC(=O)/C=C/c1cnc2c(c1)oc(=O)n2C	> 100	> 100 µM	> 100	> 100	> 100 µM	> 100	> 100	> 100	> 100	> 100 µM	> 100	> 100	–	–	–
COc1ccc2c(c1)C(=O)[C@@](Nc1ccc(C=O)cc1)(OC)[C@@](OC)(c1ccc([N+](=O)[O-])cc1)O2	> 10	> 10 µM	> 10	> 10	> 10 µM	> 10	> 10	> 10	> 10	> 10 µM	> 10	> 10	–	–	–
Cn1c(O)c(C=Nc2ccc(Cl)cc2Cl)c(=O)n(C)c1=O	> 100	> 100 µM	> 100	> 100	> 100 µM	> 100	> 100	> 100	> 100	> 100 µM	> 100	> 100	–	–	–
COc1ccc(C(=O)N(Cc2cccnc2)C(=S)N(Cc2cccnc2)C(=O)c2ccc(OC)cc2)cc1	> 100	> 100 µM	> 100	> 100	> 100 µM	> 100	> 100	> 100	> 100	> 100 µM	> 100	> 100	–	–	–
COc1ccc2c(c1)c(=O)c1c(NCCCN(C)C)ccc3ncn2c31	32.8	> 44.9 µM	22.1	16.4	22.1 µM	27	8.4	12.9	16.8	15.2 µM	15.3	45.3	–	–	–
CC(=O)OCCCCn1cnc2c(Cl)nc(Nc3ccccc3)nc21	> 100	> 100 µM	–	> 100	–	> 100	> 100	–	> 100	> 100 µM	> 100	> 100	–	–	–
CC1OC(OC2C[C@](O)(C(=O)CBr)Cc3c(O)c4c(c(O)c32)C(=O)c2ccccc2C4=O)C(F)C(O)C1O (some centres not stated)	> 82	3.79 µM	79.5	> 67.7	> 100 µM	> 100	> 100	26.1	7.08	27.5 µM	> 45.8	3.04	–	–	–
N[C@@H](Cc1ccc2oc3cc(=O)c4ccccc4c-3nc2c1)C(=O)O	> 100	60.4 µM	–	> 100	> 100 µM	> 100	6.79	40.9	> 100	64 µM	> 100	> 100	–	–	–
COc1cc2c3c(c1OC)C(=O)C(=O)C1=C3N(CCC1)CC2	> 100	55.5 µM	> 100	> 100	–	64.8	37.2	70	> 100	76.9 µM	> 100	80.4	–	–	–
COC1C(OC(C)=O)CC(=O)OC(C)C/C=C/C=C\C(O)C(C)CC(CC=O)C1OC1OC(C)C(OC2CC(C)(O)C(OC(=O)CC(C)C)C(C)O2)C(N(C)C)C1O (configuration not stated)	> 100	69 µM and 38.7 µM	> 100	> 100	> 100 µM	–	> 100	> 100	> 100	> 100 µM	> 100	> 100	–	–	–
